From patent publication US11813268B2, “Mitofusin activators and uses thereof” (Albert Einstein College of Medicine, priority 2017, dated 2023)

Tests used:
cancer cells = assay: Toxicity in cancer cells; details: 15 μM, 72 h
Text: (§1) TMRE staining was used as readout. […] CellROX was used to evaluate ROS levels.

MFN1/MFN2 DKO MEFs = details: 1 μM, 2 h
Procedure: Mitochondrial respiration. Mitochondrial oxygen consumption rates (OCR) were assessed using a XF24 Analyzer (Seahorse Biosciences, Billerica Mass., USA). […] OCR was normalized to cell number or total protein content per well for each condition tested. […] Data are expressed as Mean±SEM, OCR from untreated control for each condition; using n=3-5 individual experiments with n=3-5 replicates for each group tested.

lymphoma cells = assay: Viability of lymphoma cells
Text: as §1

MEFs [1] = assay: Cell viability assay (CellTiter-Glo) in MEFs; format: cell-based; details: 24 h
Procedure: Cells (5×10^3 cells/well) were seeded in a 96-well white plate and treated with serial dilutions of MASM7 or vehicle (0.1% DMSO). Cell viability was assayed after 24 h by addition of CellTiter-Glo reagent according to the manufacturer's protocol (Promega). Luminescence was measured using a F200 PRO microplate reader (TECAN). Viability assays were performed in at least triplicate and the data normalized to vehicle-treated control wells. Dilutions of MASM7 were performed using a TECAN D300e Digital Dispenser from 10 mM stocks.

WT MEFs [2] = assay: cells
Text: Next, it was visually examined if MASM7 could induce mitochondrial fusion in MEFs, using mitochondrial aspect ratio (mitochondrial length/width, reflecting fusion) as a readout. […] (FIG. 5).

Farage cells [3] = assay: Caspase 3 activation in Farage cells
Text: as §1

MEFs [4] = assay: TMRE mitochondrial membrane potential assay in MEFs; format: cell-based; details: 5 μM, 24 h
Procedure: Carbonyl cyanide 3-chlorophenylhydrazone (CCP) was used as a positive control (20 μM, 40 min). Following treatments, cells were stained with 400 nM TMRE (Sigma Cat. 87917) for 20 min at 37° C. Subsequently, cells were washed with once with PBS. Fluorescence intensity was detected by a M100 microplate reader (TECAN, Ex: 540 nm/Em: 579 nm).

[5] = tested on: MFN1/MFN2 DKO MEFs reconstituted with WT, L727A and D725A/L727A MFN2; details: L727A and D725A/L727A MFN2 vs WT
Procedure: Evaluation of mitochondrial morphology using mitochondrial aspect ratio (Mito AR; length/width) as a readout. […] Mitotracker green stains mitochondria. Scale bar 20 μm. […] Quantification of Mito AR in MFN1/MFN2 DKO MEFs reconstituted with WT, L727A and D725A/L727A MFN2.
Live cell imaging. […] Images were taken with Leica SP5 inverted confocal microscope. Data were analyzed with Image J software. >200 mitochondria were measured per condition in mitochondrial aspect ratio.

Farage cells [6] = assay: ROS levels (CellROX) in Farage cells
Text: as §1

MEFs [7] = assay: Staurosporine-induced apoptosis (active caspase 3) in MEFs; format: cell-based; details: co-treated with staurosporine (STS)
Procedure: Transfected HEK 293T or MEFs were washed with once PBS and fixed with 2% PFA for 13 min. Subsequently, cells were blocked, then incubated for 1 h at room temperature with the primary antibody for ATP5B (Abcam; ab128743) or active caspase 3 (R&D Systems; AF835). After incubation with the primary antibody, cells were washed with PBS and incubated for 1 h at room temperature with the secondary antibody (ThermoFisher Scientific; A11010). […] Data were analyzed with Image J software.
Consistent with previous reports showing that inhibition of fission reduced apoptosis (8,12-14), the effect of MASM7 was evaluated upon a classic apoptotic stimulus such as staurosporine (STS) in MEFs.

Farage cells [8] = assay: TMRE mitochondrial membrane potential in Farage cells
Text: as §1

WT MEFs [9] = assay: Mitochondrial respiration (Seahorse OCR) in WT MEFs; details: 1 μM, 2 h
MEFs [10] = assay: Caspase-3/7 activation assay in MEFs; format: cell-based; details: 5 μM, 24 h
Procedure: Cells (5×10^3 cells/well) were seeded in a 96-well white plate and treated with MASM7 (5 μM), doxorubicin (1 μM) or vehicle (0.05% DMSO). Caspase 3/7 activation was measured after 24 h by addition of the Caspase-Glo 3/7 chemiluminescence reagent according to the manufacturer's protocol (Promega). Luminescence was detected by a […] microplate reader (TECAN).

CC(Sc1nnc(C2CC2)n1-c1ccccc1)C(=O)Nc1sc2c(c1C(N)=O)CCC2 (stereo not drawn) [MASM7]
Toxicity in the indicated cancer cells (cancer cells): low to moderate toxicity
Basal and maximal OCR, MFN1/MFN2 DKO MEFs (MFN1/MFN2 DKO MEFs): does not increase basal and maximal OCR
Viability of lymphoma cells (lymphoma cells): reduces viability selectively in lymphoma cells
Viability of MEFs (MEFs [1]): did not reduce viability
Mitochondrial aspect ratio in WT MEFs (WT MEFs [2]; 1 μM, 2 h): increased mitochondrial aspect ratio
EC50 (WT MEFs [2]; read-out: EC50 for inducing fusion (Mito AR)): 75 nM
Caspase 3 activation in Farage cells (Farage cells [3]): promotes caspase 3 activation in a dose and time dependent manner
Mitochondrial membrane potential in MEFs (TMRE) (MEFs [4]): did not reduce viability or mitochondrial membrane potential
MASM7-induced fusion (Mito AR) with HR2 domain mutations of Mfn2 [5]: inhibits MASM7-induced fusion
ROS levels in Farage cells (CellROX) (Farage cells [6]): increases ROS levels
Population of MEFs positive to caspase 3 activation (MEFs [7]): reduced significantly
Mitochondrial membrane potential in Farage cells (TMRE) (Farage cells [8]): reduces mitochondrial membrane potential in a dose and time dependent manner
ATP production, WT MEFs (WT MEFs [9]): increases ATP production
Basal and maximal oxygen consumption rate (OCR), WT MEFs (WT MEFs [9]): increases basal and maximal oxygen consumption rate (OCR)
Caspase 3/7 activation in MEFs (MEFs [10]): did not induce caspase 3/7 activation
